Source: ChEMBL document CHEMBL5126592, “Design, synthesis and activity against drug-resistant bacteria evaluation of C-20, C-23 modified 5-O-mycaminosyltylonolide derivatives” (Eur J Med Chem, 2022)
Converted amounts (≈) assume the structure as drawn.

Tests used:
[1] = Genotoxicity in Salmonella typhimurium TA98 assessed as number of revertants at 1x10^-3 mg/plate incubated for 72 hrs in presence of liver S9 fraction by Ames test (reference value: 43.67+/- 7.1); type: toxicity, subcellular; conditions: salmonella enterica subsp. enterica serovar typhimurium, s9, 72 h
[2] = Toxicity in Kunming mouse infected with Staphylococcus aureus ATCC 25923 assessed as normal alveolar wall thickness at 20 to 40 mg/kg, iv measured after 1 hr by hematoxylin and eosin staining based microscopic analysis; type: organism-based; conditions: in vivo, dose 20-40 mg/kg
[3] = Toxicity in Kunming mouse infected with Staphylococcus aureus ATCC 25923 assessed as appearance of pink and spongy lungs at 20 to 40 mg/kg, iv measured after 1 hr by hematoxylin and eosin staining based microscopic analysis; type: organism-based; conditions: in vivo, dose 20-40 mg/kg
Staphylococcus aureus [4] = assay: Antibacterial activity against Staphylococcus aureus ATCC 29213 incubated for 16 to 20 hrs using 10^3 CFU/ml bacterial inoculum by broth microdilution method; type: functional; conditions: time 16-20 hrs
Escherichia coli [5] = assay: Antibacterial activity against Escherichia coli ATCC 25922 incubated for 16 to 20 hrs using 10^5 CFU/ml bacterial inoculum by broth microdilution method; type: functional; conditions: time 16-20 hrs
Staphylococcus aureus [6] = assay: Antibacterial activity against Staphylococcus aureus incubated for 16 to 20 hrs by broth microdilution method; type: functional; conditions: time 16-20 hrs
Staphylococcus aureus [7] = assay: Antibacterial activity against Staphylococcus aureus ATCC 25923 incubated for 16 to 20 hrs by broth microdilution method; type: functional; conditions: time 16-20 hrs
Cronobacter sakazakii = assay: Antibacterial activity against Cronobacter sakazakii ATCC 29544 incubated for 16 to 20 hrs by broth microdilution method; type: functional; conditions: time 16-20 hrs
Escherichia coli [8] = assay: Antibacterial activity against Escherichia coli incubated for 16 to 20 hrs by broth microdilution method; type: functional; conditions: time 16-20 hrs
Pseudomonas aeruginosa = assay: Antibacterial activity against Pseudomonas aeruginosa LTP-3 incubated for 16 to 20 hrs by broth microdilution method; type: functional; conditions: time 16-20 hrs
Staphylococcus aureus [9] = assay: Antibacterial activity against Staphylococcus aureus ATCC 29213 incubated for 16 to 20 hrs by broth microdilution method; type: functional; conditions: time 16-20 hrs
Escherichia coli [10] = assay: Antibacterial activity against Escherichia coli ATCC 25922 at pH 7.4 incubated for 16 to 20 hrs by broth microdilution method; type: functional; conditions: time 16-20 hrs
Escherichia coli [11] = assay: Antibacterial activity against Escherichia coli ATCC 25922 at pH 7.6 incubated for 16 to 20 hrs by broth microdilution method; type: functional; conditions: time 16-20 hrs
Escherichia coli [12] = assay: Antibacterial activity against Escherichia coli ATCC 25922 at pH 8.2 incubated for 16 to 20 hrs by broth microdilution method; type: functional; conditions: time 16-20 hrs
Staphylococcus aureus [13] = assay: Antibacterial activity against Staphylococcus aureus ATCC 29213 at pH 7.6 incubated for 16 to 20 hrs by broth microdilution method; type: functional; conditions: time 16-20 hrs
Escherichia coli [14] = assay: Antibacterial activity against Escherichia coli ATCC 25922 incubated for 16 to 20 hrs in presence of 10% foetal bovine serum by broth microdilution method; type: functional; conditions: time 16-20 hrs
Escherichia coli [15] = assay: Antibacterial activity against Escherichia coli ATCC 25922 incubated for 16 to 20 hrs in presence of 25% foetal bovine serum by broth microdilution method; type: functional; conditions: time 16-20 hrs
Staphylococcus aureus [16] = assay: Antibacterial activity against Staphylococcus aureus ATCC 29213 at pH 8.6 incubated for 16 to 20 hrs in presence of 10% foetal bovine serum by broth microdilution method; type: functional; conditions: time 16-20 hrs
[17] = Genotoxicity in Salmonella typhimurium TA100 assessed as number of revertants at 2x10^-4 mg/plate incubated for 72 hrs in absence of liver S9 fraction by Ames test (reference value: 221.67 +/- 15.57); type: toxicity; conditions: salmonella enterica subsp. enterica serovar typhimurium, s9, 72 h
[18] = Genotoxicity in Salmonella typhimurium TA100 assessed as number of revertants at 8x10^-6 mg/plate incubated for 72 hrs in absence of liver S9 fraction by Ames test (reference value: 221.67 +/- 15.57); type: toxicity; conditions: salmonella enterica subsp. enterica serovar typhimurium, s9, 72 h
[19] = Genotoxicity in Salmonella typhimurium TA100 assessed as number of revertants at 2x10^-4 mg/plate incubated for 72 hrs in presence of liver S9 fraction by Ames test (reference value: 204.33 +/- 8.14); type: toxicity, subcellular; conditions: salmonella enterica subsp. enterica serovar typhimurium, s9, 72 h
[20] = Genotoxicity in Salmonella typhimurium TA100 assessed as number of revertants at 4x10^-5 mg/plate incubated for 72 hrs in presence of liver S9 fraction by Ames test (reference value: 204.33 +/- 8.14); type: toxicity, subcellular; conditions: salmonella enterica subsp. enterica serovar typhimurium, s9, 72 h
[21] = Genotoxicity in Salmonella typhimurium TA100 assessed as number of revertants at 1.6x10^-6 mg/plate incubated for 72 hrs in presence of liver S9 fraction by Ames test (reference value: 204.33 +/- 8.14); type: toxicity, subcellular; conditions: salmonella enterica subsp. enterica serovar typhimurium, s9, 72 h
[22] = Genotoxicity in Salmonella typhimurium TA102 assessed as number of revertants at 2x10^-4 mg/plate incubated for 72 hrs in presence of liver S9 fraction by Ames test (reference value: 465.33 +/- 18.04); type: toxicity, subcellular; conditions: salmonella enterica subsp. enterica serovar typhimurium, s9, 72 h
[23] = Genotoxicity in Salmonella typhimurium TA102 assessed as number of revertants at 8x10^-6 mg/plate incubated for 72 hrs in presence of liver S9 fraction by Ames test (reference value: 465.33 +/- 18.04); type: toxicity, subcellular; conditions: salmonella enterica subsp. enterica serovar typhimurium, s9, 72 h
[24] = Genotoxicity in Salmonella typhimurium TA1535 assessed as number of revertants at 1x10^-3 mg/plate incubated for 72 hrs in absence of liver S9 fraction by Ames test (reference value: 14.33 +/- 0.58); type: toxicity; conditions: salmonella enterica subsp. enterica serovar typhimurium, s9, 72 h
[25] = Genotoxicity in Salmonella typhimurium TA1535 assessed as number of revertants at 2x10^-4 mg/plate incubated for 72 hrs in absence of liver S9 fraction by Ames test (reference value: 14.33 +/- 0.58); type: toxicity; conditions: salmonella enterica subsp. enterica serovar typhimurium, s9, 72 h
[26] = Genotoxicity in Salmonella typhimurium TA1535 assessed as number of revertants at 8x10^-6 mg/plate incubated for 72 hrs in absence of liver S9 fraction by Ames test (reference value: 14.33 +/- 0.58); type: toxicity; conditions: salmonella enterica subsp. enterica serovar typhimurium, s9, 72 h
[27] = Genotoxicity in Salmonella typhimurium TA1535 assessed as number of revertants at 8x10^-6 mg/plate incubated for 72 hrs in presence of liver S9 fraction by Ames test (reference value: 15.33 +/- 2.52); type: toxicity, subcellular; conditions: salmonella enterica subsp. enterica serovar typhimurium, s9, 72 h
[28] = Genotoxicity in Salmonella typhimurium TA1535 assessed as number of revertants at 1.6x10^-6 mg/plate incubated for 72 hrs in presence of liver S9 fraction by Ames test (reference value: 15.33 +/- 2.52); type: toxicity, subcellular; conditions: salmonella enterica subsp. enterica serovar typhimurium, s9, 72 h
[29] = Genotoxicity in Salmonella typhimurium TA1537 assessed as number of revertants at 4x10^-5 mg/plate incubated for 72 hrs in absence of liver S9 fraction by Ames test (reference value: 22.67 +/- 2.52); type: toxicity; conditions: salmonella enterica subsp. enterica serovar typhimurium, s9, 72 h
[30] = Genotoxicity in Salmonella typhimurium TA1537 assessed as number of revertants at 8x10^-6 mg/plate incubated for 72 hrs in absence of liver S9 fraction by Ames test (reference value: 22.67 +/- 2.52); type: toxicity; conditions: salmonella enterica subsp. enterica serovar typhimurium, s9, 72 h
[31] = Genotoxicity in Salmonella typhimurium TA1537 assessed as number of revertants at 4x10^-5 mg/plate incubated for 72 hrs in presence of liver S9 fraction by Ames test (reference value: 20 +/- 5); type: toxicity, subcellular; conditions: salmonella enterica subsp. enterica serovar typhimurium, s9, 72 h
[32] = Genotoxicity in Salmonella typhimurium TA1537 assessed as number of revertants at 1.6x10^-6 mg/plate incubated for 72 hrs in presence of liver S9 fraction by Ames test (reference value: 20 +/- 5); type: toxicity, subcellular; conditions: salmonella enterica subsp. enterica serovar typhimurium, s9, 72 h

SMILES: CC[C@H]1OC(=O)C[C@@H](O)[C@H](C)[C@@H](O[C@@H]2O[C@H](C)[C@@H](O)[C@H](N(C)C)[C@H]2O)[C@@H](CCN(C)Cc2cn(-c3cnc4ccccc4c3)nn2)C[C@@H](C)C(=O)/C=C/C(C)=C/[C@@H]1CN1CCCCCC1
- Activity [1]: 40.33
- Activity [2]: Non-Toxic
- Activity [3]: Non-Toxic
- MIC (Staphylococcus aureus [4]): 0.0625 µg/mL (≈ 0.0693 µM)
- MIC (Escherichia coli [5]): 0.5 µg/mL (≈ 0.554 µM)
- MIC (Staphylococcus aureus [6]): 0.25 µg/mL (≈ 0.277 µM)
- MIC (Staphylococcus aureus [7]): 0.125 µg/mL (≈ 0.139 µM)
- MIC (Cronobacter sakazakii): 4 µg/mL (≈ 4.43 µM)
- MIC (Escherichia coli [8]): 1 µg/mL (≈ 1.11 µM)
- MIC (Pseudomonas aeruginosa): 0.5 µg/mL (≈ 0.554 µM)
- MIC (Staphylococcus aureus [9]): 0.125 µg/mL (≈ 0.139 µM)
- MIC (Escherichia coli [10]): 1 µg/mL (≈ 1.11 µM)
- MIC (Escherichia coli [11]): 0.5 µg/mL (≈ 0.554 µM)
- MIC (Escherichia coli [12]): 0.25 µg/mL (≈ 0.277 µM)
- MIC (Staphylococcus aureus [13]): 0.25 µg/mL (≈ 0.277 µM)
- MIC (Escherichia coli [14]): 2 µg/mL
- MIC (Escherichia coli [15]): 4 µg/mL
- MIC (Staphylococcus aureus [16]): 0.5 µg/mL
- Activity [17]: 223.33
- Activity [18]: 226
- Activity [19]: 220.67
- Activity [20]: 162
- Activity [21]: 162.67
- Activity [22]: 456.67
- Activity [23]: 466.67
- Activity [24]: 5
- Activity [25]: 10.33
- Activity [26]: 13
- Activity [27]: 13.67
- Activity [28]: 16.33
- Activity [29]: 19.67
- Activity [30]: 21.33
- Activity [31]: 14.67
- Activity [32]: 15
